Test results taken from publication PMC12377202, “Design, synthesis, and cytotoxic evaluation of quinazoline-based derivatives as VEGER-2 inhibitors: comparative study against EGFR kinase activity, induction of apoptosis, and molecular docking study” (RSC Advances, 2025).

Columns and labels:
Type in all cases: cell-based, human
HepG-2 = experiment: MTT anti-proliferative assay, HepG-2; conditions: Homo sapiens, HepG2; for viability at 0.195 µg/mL / cytotoxicity at 0.195 µg/mL: HepG-2, 0.195 ug/ml; for cytotoxicity at 0.195 µg/mL / cytotoxicity at 0.391 µg/mL / cytotoxicity at 0.781 µg/mL / cytotoxicity at 1.563 µg/mL / cytotoxicity at 3.125 µg/mL / cytotoxicity at 6.25 µg/mL / cytotoxicity at 12.5 µg/mL / cytotoxicity at 25 µg/mL: read-out: Toxicity %; for viability at 0.391 µg/mL / cytotoxicity at 0.391 µg/mL: HepG-2, 0.391 ug/ml; for viability at 0.781 µg/mL / cytotoxicity at 0.781 µg/mL: HepG-2, 0.781 ug/ml; for viability at 1.563 µg/mL / cytotoxicity at 1.563 µg/mL: HepG-2, 1.563 ug/ml; for viability at 3.125 µg/mL / cytotoxicity at 3.125 µg/mL: HepG-2, 3.125 ug/ml; for viability at 6.25 µg/mL / cytotoxicity at 6.25 µg/mL: HepG-2, 6.25 ug/ml; for viability at 12.5 µg/mL / cytotoxicity at 12.5 µg/mL: HepG-2, 12.5 ug/ml; for viability at 25 µg/mL / cytotoxicity at 25 µg/mL: HepG-2, 25 ug/ml; for IC50: MTT, HepG-2, read-out: Cytotoxicity against cancer cells IC50 HepG-2
TNF-alpha = TNF-alpha level in HepG-2 cells; conditions: control 43.48
Method: (§1) All synthesized compounds were tested at their cytotoxic concentrations in HepG-2 cells for analysis of gene expression levels of apoptotic markers caspase-3, caspase-9, TNF-α, and IL-6 proteins, and only two active compounds were tested for BAX and Bcl-2 proteins.
(§2) through Flow cytometric analysis.
(§3) Pellets were collected again and incubated with
(§4) Total RNA from vehicle-treated
(§5) (Thermo Scientific, USA).
(§6) All experiments were performed in […]

caspase-3 = experiment: Caspase-3 expression level in HepG-2 cells; conditions: for Caspase-3 ± SE: HepG-2, at IC50 concentrations, control 0.460; for caspase-3 expression level, fold increase: HepG-2, vs control cells
Method: as §1, §2, §3, §4, §5, §6

caspase-9 = experiment: Caspase-9 expression level in HepG-2 cells; conditions: for Caspase-9 ± SE: HepG-2, at IC50 concentrations, control 11.01; for caspase-9 expression level, fold increase: HepG-2, vs control cells
Method: as §1, §2, §3, §4, §5, §6

IL-6R = IL-6R level in HepG-2 cells; conditions: control 44.10; for IL-6R ± SE: HepG-2, at IC50 concentrations; for IL-6 ±SE: raw data, HepG2
Method: as §1, §2, §3, §4, §5, §6

MCF-7 = experiment: MTT anti-proliferative assay, MCF-7; conditions: Homo sapiens, MCF7; for viability at 0.195 µmol / cytotoxicity at 0.195 µmol: MCF-7, 0.195 umol; for cytotoxicity at 0.195 µmol / cytotoxicity at 0.391 µmol / cytotoxicity at 0.781 µmol / cytotoxicity at 1.563 µmol / cytotoxicity at 3.125 µmol / cytotoxicity at 6.25 µmol / cytotoxicity at 12.5 µmol / cytotoxicity at 25 µmol: read-out: Toxicity %; for viability at 0.391 µmol / cytotoxicity at 0.391 µmol: MCF-7, 0.391 umol; for viability at 0.781 µmol / cytotoxicity at 0.781 µmol: MCF-7, 0.781 umol; for viability at 1.563 µmol / cytotoxicity at 1.563 µmol: MCF-7, 1.563 umol; for viability at 3.125 µmol / cytotoxicity at 3.125 µmol: MCF-7, 3.125 umol; for viability at 6.25 µmol / cytotoxicity at 6.25 µmol: MCF-7, 6.25 umol; for viability at 12.5 µmol / cytotoxicity at 12.5 µmol: MCF-7, 12.5 umol; for viability at 25 µmol / cytotoxicity at 25 µmol: MCF-7, 25 umol; for IC50: MTT, MCF-7, read-out: Cytotoxicity against cancer cells IC50 MCF-7
K-562 = experiment: MTT anti-proliferative assay, K-562; conditions: Homo sapiens, K562; for viability at 0.195 µmol / cytotoxicity at 0.195 µmol: K-562, 0.195 umol; for cytotoxicity at 0.195 µmol / cytotoxicity at 0.391 µmol / cytotoxicity at 0.781 µmol / cytotoxicity at 1.563 µmol / cytotoxicity at 3.125 µmol / cytotoxicity at 6.25 µmol / cytotoxicity at 12.5 µmol / cytotoxicity at 25 µmol: read-out: Toxicity %; for viability at 0.391 µmol / cytotoxicity at 0.391 µmol: K-562, 0.391 umol; for viability at 0.781 µmol / cytotoxicity at 0.781 µmol: K-562, 0.781 umol; for viability at 1.563 µmol / cytotoxicity at 1.563 µmol: K-562, 1.563 umol; for viability at 3.125 µmol / cytotoxicity at 3.125 µmol: K-562, 3.125 umol; for viability at 6.25 µmol / cytotoxicity at 6.25 µmol: K-562, 6.25 umol; for viability at 12.5 µmol / cytotoxicity at 12.5 µmol: K-562, 12.5 umol; for viability at 25 µmol / cytotoxicity at 25 µmol: K-562, 25 umol; for IC50: MTT, K-562, read-out: Cytotoxicity against cancer cells IC50 K-562

O=C(Cn1cnc2cc([N+](=O)[O-])ccc2c1=O)Nc1ccc(Cl)cc1 [9c, N-(4-Chlorophenyl)-2-(7-nitro-4-oxoquinazolin-3(4H)-yl)acetamide]
viability at 0.195 µg/mL (HepG-2): 83.4%
cytotoxicity at 0.195 µg/mL (HepG-2): 16.6%
viability at 0.391 µg/mL (HepG-2): 70.3%
cytotoxicity at 0.391 µg/mL (HepG-2): 29.7%
viability at 0.781 µg/mL (HepG-2): 56.1%
cytotoxicity at 0.781 µg/mL (HepG-2): 43.9%
viability at 1.563 µg/mL (HepG-2): 34.4%
cytotoxicity at 1.563 µg/mL (HepG-2): 65.6%
viability at 3.125 µg/mL (HepG-2): 16.8%
cytotoxicity at 3.125 µg/mL (HepG-2): 83.2%
viability at 6.25 µg/mL (HepG-2): 11.7%
cytotoxicity at 6.25 µg/mL (HepG-2): 88.3%
viability at 12.5 µg/mL (HepG-2): 7.36%
cytotoxicity at 12.5 µg/mL (HepG-2): 92.6%
viability at 25 µg/mL (HepG-2): 6.23%
cytotoxicity at 25 µg/mL (HepG-2): 93.8%
IC50 (HepG-2): 1000 ± 4.9 nM
TNF-alpha ±SE (TNF-alpha; HepG-2, at IC50 concentrations): 16.86 ± 2.39 ng/L
TNF-alpha ±SE (TNF-alpha; raw data, HepG2): 23.47 ng/L
Caspase-3 ± SE (caspase-3): 1.77 ± 0.08 ng/mL
Caspase-3 ± SE (caspase-3; listed as N2): 1.77 ng/mL
caspase-3 expression level, fold increase (caspase-3): 3.85 fold
Caspase-9 ± SE (caspase-9): 70.03 ± 0.47 ng/L
Caspase-9 ± SE (caspase-9; listed as N2): 70.03 ng/L
caspase-9 expression level, fold increase (caspase-9): 6.37 fold
IL-6R ± SE (IL-6R): 11.87 ± 0.80 ng/L
IL-6 ±SE (IL-6R): 24.59 ng/L
viability at 0.195 µmol (MCF-7): 91.3%
cytotoxicity at 0.195 µmol (MCF-7): 8.66%
viability at 0.391 µmol (MCF-7): 68.1%
cytotoxicity at 0.391 µmol (MCF-7): 31.9%
viability at 0.781 µmol (MCF-7): 43%
cytotoxicity at 0.781 µmol (MCF-7): 57%
viability at 1.563 µmol (MCF-7): 27.7%
cytotoxicity at 1.563 µmol (MCF-7): 72.3%
viability at 3.125 µmol (MCF-7): 15.2%
cytotoxicity at 3.125 µmol (MCF-7): 84.8%
viability at 6.25 µmol (MCF-7): 11.2%
cytotoxicity at 6.25 µmol (MCF-7): 88.8%
viability at 12.5 µmol (MCF-7): 8.44%
cytotoxicity at 12.5 µmol (MCF-7): 91.6%
viability at 25 µmol (MCF-7): 6.82%
cytotoxicity at 25 µmol (MCF-7): 93.2%
IC50 (MCF-7): 672.4 ± 4.9 nM
viability at 0.195 µmol (K-562): 80.6%
cytotoxicity at 0.195 µmol (K-562): 19.4%
viability at 0.391 µmol (K-562): 60%
cytotoxicity at 0.391 µmol (K-562): 40%
viability at 0.781 µmol (K-562): 33.6%
cytotoxicity at 0.781 µmol (K-562): 66.4%
viability at 1.563 µmol (K-562): 22.3%
cytotoxicity at 1.563 µmol (K-562): 77.7%
viability at 3.125 µmol (K-562): 11%
cytotoxicity at 3.125 µmol (K-562): 89%
viability at 6.25 µmol (K-562): 8.29%
cytotoxicity at 6.25 µmol (K-562): 91.7%
viability at 12.5 µmol (K-562): 7.43%
cytotoxicity at 12.5 µmol (K-562): 92.6%
viability at 25 µmol (K-562): 7.02%
cytotoxicity at 25 µmol (K-562): 93%
IC50 (K-562): 538.8 ± 1.7 nM

O=C(Cn1cnc2cc([N+](=O)[O-])ccc2c1=O)Nc1ccc(F)c(Cl)c1 [9e, N-(3-Chloro-4-fluorophenyl)-2-(7-nitro-4-oxoquinazolin-3(4H)-yl)acetamide]
viability at 0.195 µg/mL (HepG-2): 87.5%
cytotoxicity at 0.195 µg/mL (HepG-2): 12.5%
viability at 0.391 µg/mL (HepG-2): 63.9%
cytotoxicity at 0.391 µg/mL (HepG-2): 36.1%
viability at 0.781 µg/mL (HepG-2): 55.2%
cytotoxicity at 0.781 µg/mL (HepG-2): 44.8%
viability at 1.563 µg/mL (HepG-2): 49.6%
cytotoxicity at 1.563 µg/mL (HepG-2): 50.4%
viability at 3.125 µg/mL (HepG-2): 25.9%
cytotoxicity at 3.125 µg/mL (HepG-2): 74.1%
viability at 6.25 µg/mL (HepG-2): 16.3%
cytotoxicity at 6.25 µg/mL (HepG-2): 83.7%
viability at 12.5 µg/mL (HepG-2): 8.39%
cytotoxicity at 12.5 µg/mL (HepG-2): 91.6%
viability at 25 µg/mL (HepG-2): 6.85%
cytotoxicity at 25 µg/mL (HepG-2): 93.2%
IC50 (HepG-2): 1510 ± 2 nM
TNF-alpha ±SE (TNF-alpha; HepG-2, at IC50 concentrations): 34.27 ± 1.94 ng/L
TNF-alpha ±SE (TNF-alpha; raw data, HepG2): 32.07 ng/L
Caspase-3 ± SE (caspase-3): 0.77 ± 0.069 ng/mL
Caspase-3 ± SE (caspase-3; listed as N4): 0.77 ng/mL
caspase-3 expression level, fold increase (caspase-3): 1.6 fold
Caspase-9 ± SE (caspase-9): 25.20 ± 1.27 ng/L
Caspase-9 ± SE (caspase-9; listed as N4): 25.20 ng/L
caspase-9 expression level, fold increase (caspase-9): 2.29 fold
IL-6R ± SE (IL-6R): 25.25 ± 0.16 ng/L
IL-6 ±SE (IL-6R): 11.93 ng/L
viability at 0.195 µmol (MCF-7): 54.8%
cytotoxicity at 0.195 µmol (MCF-7): 45.2%
viability at 0.391 µmol (MCF-7): 29.1%
cytotoxicity at 0.391 µmol (MCF-7): 70.9%
viability at 0.781 µmol (MCF-7): 20.9%
cytotoxicity at 0.781 µmol (MCF-7): 79.1%
viability at 1.563 µmol (MCF-7): 13.7%
cytotoxicity at 1.563 µmol (MCF-7): 86.3%
viability at 3.125 µmol (MCF-7): 9.89%
cytotoxicity at 3.125 µmol (MCF-7): 90.1%
viability at 6.25 µmol (MCF-7): 9.23%
cytotoxicity at 6.25 µmol (MCF-7): 90.8%
viability at 12.5 µmol (MCF-7): 8.22%
cytotoxicity at 12.5 µmol (MCF-7): 91.8%
viability at 25 µmol (MCF-7): 6.51%
cytotoxicity at 25 µmol (MCF-7): 93.5%
IC50 (MCF-7): 231.4 ± 2.3 nM
viability at 0.195 µmol (K-562): 60.6%
cytotoxicity at 0.195 µmol (K-562): 39.4%
viability at 0.391 µmol (K-562): 47%
cytotoxicity at 0.391 µmol (K-562): 53%
viability at 0.781 µmol (K-562): 26.6%
cytotoxicity at 0.781 µmol (K-562): 73.4%
viability at 1.563 µmol (K-562): 19%
cytotoxicity at 1.563 µmol (K-562): 81%
viability at 3.125 µmol (K-562): 13.7%
cytotoxicity at 3.125 µmol (K-562): 86.3%
viability at 6.25 µmol (K-562): 10.8%
cytotoxicity at 6.25 µmol (K-562): 89.2%
viability at 12.5 µmol (K-562): 8.13%
cytotoxicity at 12.5 µmol (K-562): 91.9%
viability at 25 µmol (K-562): 6.53%
cytotoxicity at 25 µmol (K-562): 93.5%
IC50 (K-562): 346.9 ± 2.9 nM
